Measured values: publication PMC8699473, “An Easily Expandable Multi-Drug LC-MS Assay for the Simultaneous Quantification of 57 Oral Antitumor Drugs in Human Plasma” (Cancers, 2021)

Tests used:
[1] = Freeze-thaw stability in spiked pooled human plasma; format: physicochemical
[2] = Autosampler stability of ready for injection samples; format: physicochemical, human
[3] = design: method as in supplement references [1-55] as printed per drug; settings: minimum steady-state blood plasma concentration after multiple dose administration; ref supplement references [1-55] per drug; cited from earlier work

SMILES | Freeze-Thaw Accuracy [%] ([1]; validation standard 2xLLOV) | Freeze-Thaw Accuracy [%] ([1]; validation standard LLOV) | Freeze-Thaw Accuracy [%] ([1]; validation standard MOV) | Freeze-Thaw Accuracy [%] ([1]; validation standard ULOV) | Autosampler (24h, 4°C) Accuracy [%] ([2]; validation standard 2xLLOV) | Autosampler (72h, 4°C) Accuracy [%] ([2]; validation standard 2xLLOV) | Autosampler (24h, 4°C) Accuracy [%] ([2]; validation standard LLOV) | Autosampler (72h, 4°C) Accuracy [%] ([2]; validation standard LLOV) | Autosampler (24h, 4°C) Accuracy [%] ([2]; validation standard MOV) | Autosampler (72h, 4°C) Accuracy [%] ([2]; validation standard MOV) | Autosampler (24h, 4°C) Accuracy [%] ([2]; validation standard ULOV) | Autosampler (72h, 4°C) Accuracy [%] ([2]; validation standard ULOV) | cmin [3] [ng/mL]
CCC1=C[C@@H]2CN(C1)Cc1c([nH]c3ccccc13)[C@@](C(=O)OC)(c1cc3c(cc1OC)N(C)[C@H]1[C@@](O)(C(=O)OC)[C@H](OC(C)=O)[C@]4(CC)C=CCN5CC[C@]31[C@@H]54)C2 [Vinorelbine] | 105.8 | 120.0 | 95.7 | 96.7 | 89.9 | 87.3 | 65.0 | 67.9 | 97.7 | 99.6 | 102.4 | 99.5 | 2.6
Cc1cn(-c2cc(NC(=O)c3ccc(C)c(Nc4nccc(-c5cccnc5)n4)c3)cc(C(F)(F)F)c2)cn1 [Nilotinib] | 98.5 | 92.8 | 100.9 | 96.0 | 97.8 | 101.2 | 88.1 | 92.6 | 102.7 | 104.0 | 100.3 | 102.0 | 1165
C[C@]12CC[C@H](O)CC1=CC[C@@H]1[C@@H]2CC[C@]2(C)C(c3cccnc3)=CC[C@@H]12 [Abiraterone] | 104.5 | 105.9 | 101.5 | 100.2 | 98.9 | 97.9 | 90.8 | 94.9 | 104.6 | 101.6 | 100.2 | 104.1 | 9.3
O=C1CCC(N2C(=O)c3ccccc3C2=O)C(=O)N1 (centres unmarked) [Thalidomide] | 78.3 | 83.3 | 74.7 | 72.8 | 102.3 | 101.6 | 98.2 | 98.0 | 105.2 | 96.2 | 96.9 | 97.8 | 600
CN(C)C(=O)c1cc2cnc(Nc3ccc(N4CCNCC4)cn3)nc2n1C1CCCC1 [Ribociclib] | 103.9 | 86.3 |  | 92.4 | 103.0 |  | 84.0 |  | 104.1 |  | 89.8 |  | 732
Cc1nc(Nc2ncc(C(=O)Nc3c(C)cccc3Cl)s2)cc(N2CCN(CCO)CC2)n1 [Dasatinib] | 99.1 | 108.8 | 99.1 | 102.2 | 102.9 | 106.3 | 116.5 | 114.9 | 102.8 | 99.0 | 102.6 | 101.0 | 2.61
COc1cc2c(Nc3ccc(Br)cc3F)ncnc2cc1OCC1CCN(C)CC1 [Vandetanib] | 97.2 | 83.4 | 101.5 | 94.0 | 103.5 | 102.7 | 85.9 | 83.5 | 108.2 | 101.8 | 95.3 | 94.4 | 795
O=C1CN2Cc3c(ccc(Cl)c3Cl)N=C2N1 [Anagrelide] | 96.5 | 92.8 | 93.8 | 99.6 | 113.2 | 106.1 | 111.7 | 110.5 | 104.6 | 96.8 | 101.8 | 98.2 | 
CO[C@@H]1[C@H](N(C)C(=O)c2ccccc2)C[C@H]2O[C@]1(C)n1c3ccccc3c3c4c(c5c6ccccc6n2c5c31)C(=O)NC4 [Midostaurin] | 95.9 | 100.6 | 94.6 | 97.4 | 103.3 | 103.0 | 109.7 | 108.2 | 101.4 | 103.7 | 102.8 | 97.9 | 
Cc1[nH]c2ccccc2c1CCNCc1ccc(/C=C/C(=O)NO)cc1 [Panobinostat] | 107.5 | 104.3 | 98.8 | 102.3 | 100.3 | 95.4 | 83.8 | 73.7 | 102.4 | 101.0 | 95.4 | 101.1 | 
